PMC6749294, “Comparison of the Utility of RP-TLC Technique and Different Computational Methods to Assess the Lipophilicity of Selected Antiparasitic, Antihypertensive, and Anti-inflammatory Drugs” (Molecules, 2019)

Test: not given
Conditions: n-octanol-water, ref 33; cited from earlier work

In the case of Cc1ncc([N+](=O)[O-])n1CC(C)O (stereo not drawn) [Secnidazole, secnidazole], the logPexp is given as 0.22 [33].

Same assay, conditions: n-octanol-water, ref 36; cited from earlier work

In the case of COc1ccc2c(c1)c(CC(=O)O)c(C)n2C(=O)c1ccc(Cl)cc1 [Indomethacin, indomethacin], the logPexp is given as 4.27 [36].

Same assay, conditions: n-octanol-water, ref 39; cited from earlier work

For Cc1cccc(Nc2ccccc2C(=O)O)c1C [Mefenamic Acid, mefenamic acid], the logPexp is given as 5.12 [39].

Same assay, conditions: n-octanol-water, ref 42; cited from earlier work

For COc1ccc2c(c1)c(CC(=O)O)c(C)n2C(=O)c1ccc(Cl)cc1 [Indomethacin, indomethacin], the logPexp is given as 4.10 [42].

Same assay, conditions: n-octanol-water, ref 43; cited from earlier work

In the case of COc1ccc2cc(CCC(C)=O)ccc2c1 [Nabumetone, nabumetone], the logPexp is given as 3.08 [43].

Test: Prediction of logPexp from φ0(a) with Equation (3)
Assay type: physicochemical
Conditions: chromatography with acetone-water mobile phase; calculated from φ0(a) with Equation (3); read-out: predicted logPexp
Text: The continuation of our lipophilicity study of fifteen biocompounds belonging to the three groups of drugs and the determination of another lipophilicity descriptor, namely φ0, in accordance with Equation (6), allowed us to obtain the two new lipophilicity parameters φ0(a) and φ0(m) for a proper used mobile phase, i.e., acetone-water (a) and methanol-water (m), respectively. What is important is that the calculation of this parameter was possible because a satisfactory linear relationship between both, i.e., the intercept and slope (RMWS and S), in each obtained Soczewiński-Wachtmeister’s equation was achieved (r > 0.98). In order to estimate the utility of these parameters for the prediction of the theoretical as well as experimental parameter of the lipophilicity of a large group of investigated compounds, a correlation matrix between all previously described (thus chromatographic) parameters, as well as the computed and experimental partition coefficient, was done. The results of the correlation analysis indicate that among all φ0 values the best is the one obtained for acetone-water, which is to say φ0(a). […]
This fact confirms the potential utility of the additionally calculated chromatographic parameter φ0(a) to determine the partition coefficient of all examined compounds. It can be very useful in the case of the lack of this value, like for example for the experimental logP of nilvadipine, lacidipine and carprofen. A test was performed on Equation (3) to determine the values of logPexp for the three abovementioned compounds. The results of the predicted logPexp were: 3.65 for nilvadipine, 3.96 for lacidipine and 3.54 for carprofen, respectively. It can be observed that the newly obtained logPexp values are in good agreement with the other previously described theoretical logP of these compounds. They are placed in the similar range of logP values.

Going from CCOC(=O)C1=C(C)NC(C)=C(C(=O)OCC)C1c1ccccc1/C=C/C(=O)OC(C)(C)C [Lacidipine, lacidipine] to COC(=O)C1=C(C#N)NC(C)=C(C(=O)OC(C)C)C1c1cccc([N+](=O)[O-])c1 (stereo not drawn) [Nilvadipine, nilvadipine], the chromatographic logP falls from 3.96 to 3.65.

Test: RP-TLC lipophilicity on RP-18F254 plates (Soczewiński-Wachtmeister's and Ościk's equations)
Assay type: physicochemical
Conditions: Ościk's equation, acetone-water mobile phase, silica gel RP-18F254
Procedure: The chromatographic analysis was carried on RP-18F254 plates (Art.1.05559, E. Merck, Darmstadt, Germany). The solutions of the investigated compounds were spotted separately onto chromatographic plates using precise micropipettes in a quantity of 5 µL each.
The chromatograms were developed using the mixtures of methanol-water and acetone-water in different volume compositions, as follows:
For antiparasitic drugs: • - the content of methanol was gradually varied by 10% (v/v) from 20–100 (%, v/v), • - the content of acetone was gradually varied by 10% (v/v) from 10–100 (%, v/v).
In the case of antihypertensive drugs, the content of methanol and acetone was gradually varied by 5% (v/v) from 60–100 (%, v/v).
For non-steroidal anti-inflammatory drugs: • - the content of methanol was gradually varied by 5% (v/v) from 60–100 (%, v/v), • - the content of acetone was gradually varied by10% (v/v) from 20–100 (%, v/v).
Next, the chamber was saturated with solvent vapor for 20 min. The chromatograms were developed at room temperature, e.g., 22 ± 1 °C. The development distance was 75 mm. The plates were dried at room temperature, e.g., 22 ± 1 °C. Each chromatogram was done in triplicate.
Densitometric scanning was done using a TLC Scanner 3 with WinCATS 1.4.2 software manufactured by Camag (Muttenz, Switzerland) in the reflectance/absorbance mode.
Densitometric scanning was performed at a respective absorption maximum for the analyzed drugs. The slit dimensions were 10.00 × 0.40 mm, Macro; the optimized optical system was light; the scanning speed was 20 mm/s; the data resolution was 100 μm/step; the measurement type was remission; the measurement mode was absorption; and the optical filter was second order. Each track was scanned three times, and a baseline correction (lowest slope) was used.
In order to determine the lipophilicity parameter based on Soczewiński-Wachtmeister′s procedure, the RF values obtained under the applied chromatographic conditions were converted into RM values according to the expression:(4) RM=log1/RF−1 The linear relationship between RM and the volume content of methanol and acetone in the mobile phase (φ) permits an extrapolation of the calculated RM values to the zero concentration of methanol and acetone in accordance with Soczewiński-Wachtmeister′s Equation (5). […] (5) RM=RMWS−Sφ where: RM is the RM value of the studied compound, RMWS is the RM value extrapolated to zero concentration of methanol and acetone (organic modifier) in the used mobile phase, i.e., methanol-water and acetone-water, respectively, S is the slope of the regression plot (see Supplementary Materials), and φ is the volume fraction of methanol and acetone in the mobile phase. In addition to this, on the basis of the said plot, i.e., Soczewiński-Wachtmeister′s equation, another chromatographic descriptor (φ0) has been calculated according to the following formula (Equation (6)): (6) φ0 = RMWS/S where: RMWS is the chromatographic parameter obtained by using Soczewiński-Wachtmeister’s equation in accordance with Equation (5), and S is the regression slope.
The measurable lipophilicity value expressed as RMWO was determined according to Ościk’s equation [29, 30, 32]:(7) Gxorg=xorg1−xorg/RM−xorgRMorg−1−xorgRMWO=axorg+b where: RM, RMorg, and RMWO are the solute retention factors in the mixed mobile phase, pure organic solvent, and water, respectively; xorg is the molar fraction of the organic solvent in the mobile phase; a and b are constants in the linear correlation between G(xorg) and xorg in the used mobile phase.

Going from CCOC(=O)C1=C(C)NC(C)=C(C(=O)OCC)C1c1ccccc1/C=C/C(=O)OC(C)(C)C [Lacidipine, lacidipine] to COC(=O)C1=C(C#N)NC(C)=C(C(=O)OC(C)C)C1c1cccc([N+](=O)[O-])c1 (stereo not drawn) [Nilvadipine, nilvadipine], the “RMWO(a)” value falls from 6.63 to 6.28.

In the case of Cc1ncc([N+](=O)[O-])n1CC(C)O (stereo not drawn) [Secnidazole, secnidazole], the “RMWO(a)” value was 1.21.

Same assay, conditions: Ościk's equation, methanol-water mobile phase, silica gel RP-18F254

Compared with COc1ccc2c(c1)c(CC(=O)O)c(C)n2C(=O)c1ccc(Cl)cc1 [Indomethacin, indomethacin], COc1ccc2cc(CCC(C)=O)ccc2c1 [Nabumetone, nabumetone] is lower in “RMWO(m)” value: 4.08 for the first, 2.52 for the second.

Going from CCOC(=O)C1=C(C)NC(C)=C(C(=O)OCC)C1c1ccccc1/C=C/C(=O)OC(C)(C)C [Lacidipine, lacidipine] to COC(=O)C1=C(C#N)NC(C)=C(C(=O)OC(C)C)C1c1cccc([N+](=O)[O-])c1 (stereo not drawn) [Nilvadipine, nilvadipine], the “RMWO(m)” value falls from 6.89 to 5.57.

Going from Cc1cccc(Nc2ccccc2C(=O)O)c1C [Mefenamic Acid, mefenamic acid] to CCCCC1C(=O)N(c2ccccc2)N(c2ccccc2)C1=O [Phenylbutazone, phenylbutazone], the “RMWO(m)” value falls from 3.74 to 3.54.

With Cc1ncc([N+](=O)[O-])n1CC(C)O (stereo not drawn) [Secnidazole, secnidazole] the “RMWO(m)” value was 1.72.

Same assay, conditions: Soczewiński-Wachtmeister's equation, acetone-water mobile phase, silica gel RP-18F254

Compared with COc1ccc2c(c1)c(CC(=O)O)c(C)n2C(=O)c1ccc(Cl)cc1 [Indomethacin, indomethacin], COc1ccc2cc(CCC(C)=O)ccc2c1 [Nabumetone, nabumetone] is higher in “RMWS(a)” value: 2.57 for the first, 3.08 for the second.

Compared with CCOC(=O)C1=C(C)NC(C)=C(C(=O)OCC)C1c1ccccc1/C=C/C(=O)OC(C)(C)C [Lacidipine, lacidipine], COC(=O)C1=C(C#N)NC(C)=C(C(=O)OC(C)C)C1c1cccc([N+](=O)[O-])c1 (stereo not drawn) [Nilvadipine, nilvadipine] is lower in “RMWS(a)” value: 4.51 for the first, 4.07 for the second.

Compared with Cc1cccc(Nc2ccccc2C(=O)O)c1C [Mefenamic Acid, mefenamic acid], CCCCC1C(=O)N(c2ccccc2)N(c2ccccc2)C1=O [Phenylbutazone, phenylbutazone] is lower in “RMWS(a)” value: 2.61 for the first, 1.72 for the second.

For Cc1ncc([N+](=O)[O-])n1CC(C)O (stereo not drawn) [Secnidazole, secnidazole], the “RMWS(a)” value was 0.95.

Same assay, conditions: Soczewiński-Wachtmeister's equation, methanol-water mobile phase, silica gel RP-18F254

First: COc1ccc2c(c1)c(CC(=O)O)c(C)n2C(=O)c1ccc(Cl)cc1 [Indomethacin, indomethacin]
Second: COc1ccc2cc(CCC(C)=O)ccc2c1 [Nabumetone, nabumetone]
The “RMWS(m)” value of the first is lower: 2.19 for the first, 3.12 for the second.

Compared with CCOC(=O)C1=C(C)NC(C)=C(C(=O)OCC)C1c1ccccc1/C=C/C(=O)OC(C)(C)C [Lacidipine, lacidipine], COC(=O)C1=C(C#N)NC(C)=C(C(=O)OC(C)C)C1c1cccc([N+](=O)[O-])c1 (stereo not drawn) [Nilvadipine, nilvadipine] is lower in “RMWS(m)” value: 5.01 for the first, 3.66 for the second.

Compared with Cc1cccc(Nc2ccccc2C(=O)O)c1C [Mefenamic Acid, mefenamic acid], CCCCC1C(=O)N(c2ccccc2)N(c2ccccc2)C1=O [Phenylbutazone, phenylbutazone] is lower in “RMWS(m)” value: 2.49 for the first, 1.84 for the second.

In the case of Cc1ncc([N+](=O)[O-])n1CC(C)O (stereo not drawn) [Secnidazole, secnidazole], the “RMWS(m)” value was 1.26.

Same assay, conditions: φ0 = RMWS/S (Equation 6), acetone-water mobile phase

Compared with COc1ccc2c(c1)c(CC(=O)O)c(C)n2C(=O)c1ccc(Cl)cc1 [Indomethacin, indomethacin], COc1ccc2cc(CCC(C)=O)ccc2c1 [Nabumetone, nabumetone] is higher in “φ0(a)” value: 0.747 for the first, 0.787 for the second.

Going from CCOC(=O)C1=C(C)NC(C)=C(C(=O)OCC)C1c1ccccc1/C=C/C(=O)OC(C)(C)C [Lacidipine, lacidipine] to COC(=O)C1=C(C#N)NC(C)=C(C(=O)OC(C)C)C1c1cccc([N+](=O)[O-])c1 (stereo not drawn) [Nilvadipine, nilvadipine], the “φ0(a)” value falls from 0.793 to 0.764.

In the case of Cc1cccc(Nc2ccccc2C(=O)O)c1C [Mefenamic Acid, mefenamic acid], the “φ0(a)” value was 0.789.

Same assay, conditions: φ0 = RMWS/S (Equation 6), methanol-water mobile phase

Compared with COc1ccc2c(c1)c(CC(=O)O)c(C)n2C(=O)c1ccc(Cl)cc1 [Indomethacin, indomethacin], COc1ccc2cc(CCC(C)=O)ccc2c1 [Nabumetone, nabumetone] is higher in “φ0(m)” value: 0.790 for the first, 0.903 for the second.

First: CCOC(=O)C1=C(C)NC(C)=C(C(=O)OCC)C1c1ccccc1/C=C/C(=O)OC(C)(C)C [Lacidipine, lacidipine]
Second: COC(=O)C1=C(C#N)NC(C)=C(C(=O)OC(C)C)C1c1cccc([N+](=O)[O-])c1 (stereo not drawn) [Nilvadipine, nilvadipine]
The “φ0(m)” value of the first is higher: 0.937 for the first, 0.886 for the second.

In the case of Cc1cccc(Nc2ccccc2C(=O)O)c1C [Mefenamic Acid, mefenamic acid], the “φ0(m)” value was 0.865.

Test: not given
Parameters: method as in PMID 9809446
Conditions: Nano-Sil CNF254 plates, methanol-water; cited from earlier work

Going from COc1ccc2c(c1)c(CC(=O)O)c(C)n2C(=O)c1ccc(Cl)cc1 [Indomethacin, indomethacin] to CCCCC1C(=O)N(c2ccccc2)N(c2ccccc2)C1=O [Phenylbutazone, phenylbutazone], the RMO rises from 0.52 to 1.50.

Same assay, conditions: RP-18WF254 plates, methanol-water, Soczewiński-Wachtmeister's equation; cited from earlier work

Compared with COc1ccc2c(c1)c(CC(=O)O)c(C)n2C(=O)c1ccc(Cl)cc1 [Indomethacin, indomethacin], CCCCC1C(=O)N(c2ccccc2)N(c2ccccc2)C1=O [Phenylbutazone, phenylbutazone] is higher in RMO: 2.62 for the first, 2.71 for the second.
